Data set [1] is described as follows: Viability assay in MT-4 cell cultures. The class given is cell-based, human. Conditions: human, MT-4 cells.
Data set [2] relates to HIV-1. In words: Anti-HIV-1 activity in CEM cell cultures. In kind it is cell-based. Conditions: for EC50: read-out: EC50 (CEM), effective concentration that inhibits 50% of HIV-1 replication, CEM cells.
Data set [3] can be described thus: in vitro. In kind it is cell-based, human. Conditions: human.
The subject of data set [4] is HIV-2ROD. In words: Anti-HIV-2 activity in CEM cells. In kind it is cell-based. Particulars: HIV-2ROD-infected CEM cells; data not shown.
For data set [5], the system named is HIV-1 BaL (R5). In words: p24 production in virus-infected PBMC, HIV-1 BaL. The class given is cell-based. Particulars: read-out: EC50, BaL.
In data set [6] the test system is HSV-2 (G). The data set can be described thus: HSV-2 replication in HIV-1/HSV-2 coinfected tonsillar tissue. Particulars: 1μM, n=5. In kind it is cell-based.
For data set [7], the system named is HIV-1LAI.04. The data set can be described thus: HIV-1 replication in HIV-1/HSV-2 coinfected tonsillar tissue. The class given is cell-based. Particulars: 1μM, n=5.
Data set [8] deals with HIV-1 US 3, R5 (clade B). In words: p24 production in virus-infected PBMC, HIV-1 US 3. In kind it is cell-based. Particulars: read-out: EC50, US 3.
The subject of data set [9] is HIV-1 ID12, R5 (clade A/E). The data set can be described thus: p24 production in virus-infected PBMC, HIV-1 ID12. The class given is cell-based. Particulars: read-out: EC50, ID12.
The subject of data set [10] is HIV-1 UG275, R5 (clade A). The data set can be described thus: p24 production in virus-infected PBMC, HIV-1 UG275. In kind it is cell-based. Particulars: read-out: EC50, UG275.
For data set [11], the system named is HIV-1BaL. The data set can be described thus: HIV-1 replication in human cervicovaginal tissue ex vivo. In kind it is cell-based.
The subject of data set [12] is HIV-1 NL4.3 (X4). The data set can be described thus: p24 production in virus-infected PBMC, HIV-1 NL4.3. Conditions: read-out: EC50, NL4.3. In kind it is cell-based.
The subject of data set [13] is CEM cells. The data set can be described thus: CEM cell growth. In kind it is cell-based, human. Conditions: read-out: IC50 (CEM), concentration that inhibit cell growth by 50%.
Data set [14] relates to CEM cells. The data set can be described thus: in vitro. The class given is cell-based, human.
Data set [15] has as its system HIV-1 UG 270, X4 (clade D). The data set can be described thus: p24 production in virus-infected PBMC, HIV-1 UG 270. Conditions: read-out: EC50, UG 270. In kind it is cell-based.
Data set [16] has as its system HIV-1 ETH 2220, R5 (clade C). In words: p24 production in virus-infected PBMC, HIV-1 ETH 2220. Particulars: read-out: EC50, ETH 2220. In kind it is cell-based.
Data set [17] deals with MT-4 cells. In words: MT-4 cell growth / proliferation. The class given is cell-based, human. Conditions: read-out: IC50 (MT-4), concentration that inhibit cell growth by 50%.
The test system of data set [18] is HSV-2 strain G. The data set can be described thus: HSV-2 replication in human tonsillar tissue. The class given is cell-based. Conditions: 1μM, day 12 post infection, n=4.
For data set [19], the system named is PBMC. The data set can be described thus: PBMC MTS viability staining. The class given is cell-based, human.
Data set [20] concerns HIV-1LAI.04. In words: Anti-HIV-1 activity in MT-4 cell cultures. The class given is cell-based. Particulars: MT-4 cells; for EC50: read-out: EC50 (MT-4), effective concentration that inhibits 50% of HIV-1 replication.
Data set [21] deals with clinical ACV-resistant HSV-2 isolate. The data set can be described thus: ACV-resistant HSV-2 replication in human tonsillar tissue. The class given is cell-based. Particulars: variant without functional thymidine kinase, n=2.
In data set [22] the test system is MT-4 cells. In words: Viability assay in MT-4 cell cultures. The class given is cell-based, human.
For data set [23], the system named is HIV-1LAI.04. In words: Flow-cytometry of HIV-infected. In kind it is cell-based. Conditions: tonsillar tissue, day 12 post infection; control 11.71 ± 3.87%; n=4.
Data set [24] concerns HIV-1LAI.04. In words: HIV-1 replication in human tonsillar tissue ex vivo. In kind it is cell-based.
Data set [25] concerns human tonsillar tissue T cells. In kind it is cell-based.

Read-outs that look alike come from different tables or passages of the source.

As for `Nc1nc2c(ncn2COCCO)c(=O)[nH]1` [ACV, acyclovir, reference compound], the CC50 in [1] and in data set [3] was above 150 µM throughout. For the same molecule, the “suppression of viral replication” value in data set [2] (HIV-1IIIB-infected CEM cells, data not shown) is “did not efficiently suppress viral replication”; in [4], “did not efficiently suppress viral replication”.
For `C[C@H](NP(=O)(OCCOCn1cnc2c(=O)[nH]c(N)nc21)Oc1ccccc1)C(=O)OCc1ccccc1` (stereo partly shown) [Cf2648], the EC50 was 6.6 ± 1.4 µM in data set [5]; 28 ± 12 µM in [8]; 6.4 ± 5.8 µM in [2]; 16 ± 15 µM in [9]; 25 ± 10 µM in data set [10]; 13 ± 3.8 µM in data set [12]. Further, the EC50 was 55 ± 40 µM in data set [15], 19 ± 14 µM in [16] and 5.7 ± 1.6 µM in data set [20]. Further, in data set [6], the “inhibition of HSV-2 replication in HIV-1/HSV-2 coinfected lymphoid tissue” value stood at 99.6 ± 0.2%. In addition, the “inhibition of HIV replication in HIV-1/HSV-2 coinfected lymphoid tissue” value in [7] came out at 81.1 ± 5.9%. Moreover, in data set [11] (cervicovaginal tissue, 1μM, not replenished, n=4), the “inhibition of HIV-1 replication, drug removed on day 3 post-infection” value was found to be 57.1 ± 16.0%. In addition, the “inhibition of HIV replication, drug replenished at each medium change” value in data set [11] (cervicovaginal tissue, 1μM, treated overnight then infected with HIV-1BaL, n=2) was 100%. Moreover, the “inhibition of HIV replication on day 12 post-infection, 3-day incubation followed by drug removal” value in [11] (cervicovaginal tissue, 5μM, n=3) is reported as 90.3 ± 9.2%. For the same molecule, the IC50 stood at 33 ± 7.1 µM in data set [13] and 34 ± 11 µM in data set [17]. Moreover, the CC50 in data set [14] was above 150 µM; in data set [19] (read-out: CC50, 50% cytostatic concentration, PBMC, MTS viability staining method), 319 µM. For the same molecule, the “suppression of HSV-2 replication” value in [18] is 99.6 ± 0.3%. Besides, the “SI, selective index or ratio of CC50 (MT-4)/EC50” value (“SI, selective index or ratio” below) in data set [20] is above 26. Moreover, in [21], the “inhibition of replication of ACV-resistant HSV-2 variant” value was 94.9 ± 5.1%.
For `COC(=O)[C@H](C)NP(=O)(OCCOCn1cnc2c(=O)[nH]c(N)nc21)Oc1cccc2ccccc12` (stereo partly shown) [Cf2649], the EC50 in data set [5] was determined as 5.2 ± 2.4 µM; in [8], 4.9 ± 6.1 µM; in [9] it was 53 ± 4.4 µM; in [10], 16 ± 11 µM; in data set [12], 11 ± 3.1 µM; in data set [15], 10 ± 12 µM. Further, the EC50 was determined as 6.8 ± 3.9 µM in [16] and 4.7 ± 2.1 µM in [20]. The values for the CC50 in data set [22], in [14] and in data set [19] were above 150 µM, above 150 µM and 352 µM, respectively. The “fraction of CD8- T cells HIV-infected (p24+)” value in data set [23] was 3.16 ± 1.63%. Moreover, in [11] (1 μM for 12 days, relative to donor-matched infected tissues, n=4), the “suppression of HIV-1BAL replication in cervicovaginal tissue” value is listed as 75.8 ± 10.4%. For the same molecule, the values for the IC50 in data set [13] and in [17] were 57 ± 45 µM and 19 ± 3.2 µM, respectively. For the same molecule, the “suppression of HIV replication in tonsillar tissue” value in [24] (1 μM) is “completely suppresses HIV replication”. Besides, the “inhibition of HIV-1 replication, treatment started 2 days post-infection” value in [24] (tonsillar tissue, 1μM, n=3) is on record as 94.4 ± 5.5%. The “inhibition of HIV-1 replication, treatment started 4 days post-infection” value in data set [24] (tonsillar tissue, 1μM, n=3) is listed as 90.2 ± 9.8%. For the same molecule, the “inhibition of HIV-1 replication, treatment started 6 days post-infection” value in [24] (tonsillar tissue, 1μM, n=3) is listed as 54.1 ± 13.5%. The “inhibition of HIV-1 replication, treatment started simultaneously with infection” value in [24] (tonsillar tissue, 1μM, n=3) was 96.9 ± 3%. The “SI, selective index or ratio” value in [20] is listed as above 32.
In the case of `CCOC(=O)[C@H](C)NP(=O)(OCCOCn1cnc2c(=O)[nH]c(N)nc21)Oc1cccc2ccccc12` (stereo partly shown) [Cf2676], the CC50 in data set [22] and in data set [14] was above 150 µM throughout. The EC50 in data set [2] turned out to be 12 ± 9.8 µM; in data set [20] it was 1.7 ± 0.8 µM. Moreover, the IC50 in [13] worked out at 32 ± 7.8 µM; in data set [17], 12 ± 5.3 µM. For the same molecule, the “SI, selective index or ratio” value in data set [20] is reported as above 88.
Regarding `CC(C)OC(=O)[C@H](C)NP(=O)(OCCOCn1cnc2c(=O)[nH]c(N)nc21)Oc1cccc2ccccc12` (stereo partly shown) [Cf2681], the CC50 in data set [22] and in data set [14] was above 150 µM each time. The results for the EC50 in [2] and in [20] were 6.2 ± 5.4 µM and 5.4 µM, respectively. Further, the figures for the IC50 in data set [13] and in data set [17] were 36 ± 15 µM and 73 µM, respectively. Besides, in [25], the “effect on numbers of CD4+ T cells and subsets in treated tissues” value was “did not affect the numbers of these cells”. The “SI, selective index or ratio” value in data set [20] is above 28.

The record behind these values is article PMC2811219 (The Journal of infectious diseases, 2010).
